# Like-named read-outs stand apart in the source and are kept apart here.
# Target: T1, F508delCFTR (Homo sapiens, UniProt P13569, DEL508-508)
# T1 construct: expressed in transfected cells; host or cells: CFBE41o- (human lung derived epithelial cell line), doxycycline-inducible expression
# Experiment: Cell Surface Expression-Horse Radish Peroxidase (CSE-HRP) assay
# Format: cell-based
# Settings: CFBE41o-F508delCFTR-HRP cells; for Maximum % activity (with co-corrector): with co-corrector (2 μM); for Maximum % activity (with co-corrector) / Maximum % activity (without co-corrector): normalized to on-plate positive control, highest concentration 20 μM
# Summary of the method: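 Surface F508delCFTR-HRP was read by luminol luminescence after 18–24 h compound exposure at 33 °C, without or with 2 μM co-corrector. Doses were eight 3-fold steps from 20 μM, in doxycycline-induced (0.5 μg/mL, 72 h) CFBE41o- cells. % activity was scaled to the on-plate 2 μM positive control minus DMSO; EC50 came from a variable-slope sigmoid fit.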
# [1] = test compound without co-corrector, 18-24 hours at 33° C., read-out: EC50 (without co-corrector)
# [2] = with co-corrector (2 μM of 3-[(2R,4R)-4-({[1-(2,2-difluoro-1,3-benzodioxol-5-yl)cyclopropyl]carbonyl}amino)-7-methoxy-3,4-dihydro-2H-chromen-2-yl]benzoic acid), read-out: EC50 (with co-corrector)
# T1 sequence (P13569 with tags, fused parts or gaps DEL508-508): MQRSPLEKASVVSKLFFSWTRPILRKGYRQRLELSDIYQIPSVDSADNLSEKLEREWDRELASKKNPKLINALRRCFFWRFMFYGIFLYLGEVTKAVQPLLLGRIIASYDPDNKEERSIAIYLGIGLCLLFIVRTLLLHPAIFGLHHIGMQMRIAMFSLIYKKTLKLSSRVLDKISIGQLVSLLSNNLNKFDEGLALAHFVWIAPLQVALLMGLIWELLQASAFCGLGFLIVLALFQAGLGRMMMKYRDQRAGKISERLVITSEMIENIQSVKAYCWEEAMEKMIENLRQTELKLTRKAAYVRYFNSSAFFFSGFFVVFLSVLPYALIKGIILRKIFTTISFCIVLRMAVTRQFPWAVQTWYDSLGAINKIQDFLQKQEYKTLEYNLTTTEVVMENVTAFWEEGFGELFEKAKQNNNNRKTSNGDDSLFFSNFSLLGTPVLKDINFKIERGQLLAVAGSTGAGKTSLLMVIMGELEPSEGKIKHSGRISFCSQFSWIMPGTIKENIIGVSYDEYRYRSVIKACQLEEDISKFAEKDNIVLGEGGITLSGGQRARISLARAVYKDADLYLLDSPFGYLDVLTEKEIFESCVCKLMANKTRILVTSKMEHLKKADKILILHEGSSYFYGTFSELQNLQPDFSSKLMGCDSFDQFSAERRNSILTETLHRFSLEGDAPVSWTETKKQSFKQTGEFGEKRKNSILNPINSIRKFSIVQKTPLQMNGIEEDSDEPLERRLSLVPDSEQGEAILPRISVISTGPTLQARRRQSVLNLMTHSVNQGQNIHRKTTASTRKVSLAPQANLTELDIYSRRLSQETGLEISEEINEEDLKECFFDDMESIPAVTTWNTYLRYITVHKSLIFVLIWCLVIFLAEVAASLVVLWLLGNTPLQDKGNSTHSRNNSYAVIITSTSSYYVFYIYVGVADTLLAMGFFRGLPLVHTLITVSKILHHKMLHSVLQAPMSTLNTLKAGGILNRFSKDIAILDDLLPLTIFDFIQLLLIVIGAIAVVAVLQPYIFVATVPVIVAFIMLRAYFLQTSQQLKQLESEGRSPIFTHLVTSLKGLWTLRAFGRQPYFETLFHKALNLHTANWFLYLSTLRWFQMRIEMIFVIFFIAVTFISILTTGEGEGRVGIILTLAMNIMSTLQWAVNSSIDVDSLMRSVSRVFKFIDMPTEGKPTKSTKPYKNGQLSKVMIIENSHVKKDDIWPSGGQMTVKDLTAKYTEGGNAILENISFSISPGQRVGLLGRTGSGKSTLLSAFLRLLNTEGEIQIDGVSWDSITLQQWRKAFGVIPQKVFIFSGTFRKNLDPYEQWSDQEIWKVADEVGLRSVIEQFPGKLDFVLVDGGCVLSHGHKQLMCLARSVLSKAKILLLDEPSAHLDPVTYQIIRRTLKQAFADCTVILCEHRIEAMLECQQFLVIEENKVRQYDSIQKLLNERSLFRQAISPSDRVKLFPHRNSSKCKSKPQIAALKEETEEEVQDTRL
EC50 [1] [µM],EC50 [2] [µM],Maximum % activity (with co-corrector),Maximum % activity (without co-corrector),SMILES
1 to 10,1 to 10,+++ (≥350),+++ (≥200),"COc1nc2cc(C)cc(C)c2cc1CO[C@H]1[C@H](C(C)(C)C)[C@@H](C(=O)O)N(C(=O)C2CCCCC2)[C@H]1c1cccnc1OC(C)C [Example 252, (2S,3R,4S,5S)-3-tert-butyl-1-(cyclohexanecarbonyl)-4-[(2-methoxy-5,7-dimethylquinolin-3-yl)methoxy]-5-{2-[(propan-2-yl)oxy]pyridin-3-yl}pyrrolidine-2-carboxylic acid]"
1 to 10,1 to 10,+++ (≥350),+++ (≥200),"COc1nc2cc(C)cc(C)c2cc1CO[C@H]1[C@H](C(C)(C)C)[C@@H](C(=O)O)N(C(=O)OC(C)C)[C@H]1c1cccnc1OC(C)C [Example 253, (2S,3R,4S,5S)-3-tert-butyl-4-[(2-methoxy-5,7-dimethylquinolin-3-yl)methoxy]-1-{[(propan-2-yl)oxy]carbonyl}-5-{2-[(propan-2-yl)oxy]pyridin-3-yl}pyrrolidine-2-carboxylic acid]"
1 to 10,< 1,+++ (≥350),+++ (≥200),"CCc1ccccc1[C@H]1[C@@H](OCc2cc3ccccc3nc2OC)[C@H](C(C)(C)C)[C@@H](C(=O)O)N1C(=O)[C@@H]1CCCCO1 [Example 254, (2S,3R,4S,5S)-3-tert-butyl-5-(2-ethylphenyl)-4-[(2-methoxyquinolin-3-yl)methoxy]-1-[(2S)-oxane-2-carbonyl]pyrrolidine-2-carboxylic acid]"
> 10,1 to 10,++ (≥150 and <350),+ (<100),"Cc1ccccc1[C@H]1[C@@H](OCc2nc3ccccc3n2C)[C@H](C(C)(C)C)[C@@H](C(=O)O)N1C(=O)[C@@H]1CCCCO1 [Example 255, (2S,3R,4S,5S)-3-tert-butyl-4-[(1-methyl-1H-benzimidazol-2-yl)methoxy]-5-(2-methylphenyl)-1-[(2S)-oxane-2-carbonyl]pyrrolidine-2-carboxylic acid]"
1 to 10,< 1,+++ (≥350),+ (<100),"COc1ncc(C2CCC2)cc1CO[C@H]1[C@H](C(C)(C)C)[C@@H](C(=O)O)N(C(=O)C2CCCCC2)[C@H]1c1cccc2c1OC(C)(C)C2 [Example 256, (2S,3R,4S,5S)-3-tert-butyl-4-[(5-cyclobutyl-2-methoxypyridin-3-yl)methoxy]-1-(cyclohexanecarbonyl)-5-(2,2-dimethyl-2,3-dihydro-1-benzofuran-7-yl)pyrrolidine-2-carboxylic acid]"
< 1,< 1,++ (≥150 and <350),+ (<100),"COc1ncc(C(F)(F)F)cc1CO[C@H]1[C@H](C(C)(C)C)[C@@H](C(=O)O)N(C(=O)C2CCCCC2)[C@H]1c1cccc2c1OC(C)(C)C2 [Example 257, (2S,3R,4S,5S)-3-tert-butyl-1-(cyclohexanecarbonyl)-5-(2,2-dimethyl-2,3-dihydro-1-benzofuran-7-yl)-4-{[2-methoxy-5-(trifluoromethyl)pyridin-3-yl]methoxy}pyrrolidine-2-carboxylic acid]"
< 1,< 1,+++ (≥350),+++ (≥200),"COc1ncc(C(F)(F)F)cc1CO[C@H]1[C@H](C(C)(C)OC)[C@@H](C(=O)O)N(C(=O)C2CCCCC2)[C@H]1c1ccccc1C(C)C [Example 258, (2S,3R,4S,5S)-1-(cyclohexanecarbonyl)-3-(2-methoxypropan-2-yl)-4-{[2-methoxy-5-(trifluoromethyl)pyridin-3-yl]methoxy}-5-[2-(propan-2-yl)phenyl]pyrrolidine-2-carboxylic acid]"
< 1,< 1,+++ (≥350),+++ (≥200),"COc1ncc(C(F)(F)F)cc1CO[C@H]1[C@H](C(C)(C)OC)[C@@H](C(=O)O)N(C(=O)OC(C)C)[C@H]1c1ccccc1C(C)C [Example 259, (2S,3R,4S,5S)-3-(2-methoxypropan-2-yl)-4-{[2-methoxy-5-(trifluoromethyl)pyridin-3-yl]methoxy}-1-{[(propan-2-yl)oxy]carbonyl}-5-[2-(propan-2-yl)phenyl]pyrrolidine-2-carboxylic acid]"
< 1,< 1,+++ (≥350),+++ (≥200),"COc1ncc(C(F)(F)F)cc1CO[C@H]1[C@H](C(C)(C)OC)[C@@H](C(=O)O)N(C(=O)[C@@H]2CCCCO2)[C@H]1c1ccccc1C(C)C [Example 260, (2S,3R,4S,5S)-3-(2-methoxypropan-2-yl)-4-{[2-methoxy-5-(trifluoromethyl)pyridin-3-yl]methoxy}-1-[(2S)-oxane-2-carbonyl]-5-[2-(propan-2-yl)phenyl]pyrrolidine-2-carboxylic acid]"
1 to 10,< 1,+++ (≥350),+++ (≥200),"COc1ccc(C(F)(F)F)cc1C(C)CO[C@H]1[C@H](C(C)(C)C)[C@@H](C(=O)O)N(C(=O)[C@@H]2CCCCO2)[C@H]1c1ccccc1C (stereo partly drawn) [Example 261, (2S,3R,4S,5S)-3-tert-butyl-4-{2-[2-methoxy-5-(trifluoromethyl)phenyl]propoxy}-5-(2-methylphenyl)-1-[(2S)-oxane-2-carbonyl]pyrrolidine-2-carboxylic acid]"
1 to 10,1 to 10,++ (≥150 and <350),+ (<100),"COc1ccc(C(F)(F)F)cc1[C@](O)(CO)CO[C@H]1[C@H](C(C)(C)C)[C@@H](C(=O)O)N(C(=O)[C@@H]2CCCCO2)[C@H]1c1ccccc1C [Example 262, (2S,3R,4S,5S)-3-tert-butyl-4-{(2S)-2,3-dihydroxy-2-[2-methoxy-5-(trifluoromethyl)phenyl]propoxy}-5-(2-methylphenyl)-1-[(2S)-oxane-2-carbonyl]pyrrolidine-2-carboxylic acid]"
> 10,1 to 10,++ (≥150 and <350),+ (<100),"COc1ccc(C(F)(F)F)cc1[C@@](O)(CO)CO[C@H]1[C@H](C(C)(C)C)[C@@H](C(=O)O)N(C(=O)[C@@H]2CCCCO2)[C@H]1c1ccccc1C [Example 263, (2S,3R,4S,5S)-3-tert-butyl-4-{(2R)-2,3-dihydroxy-2-[2-methoxy-5-(trifluoromethyl)phenyl]propoxy}-5-(2-methylphenyl)-1-[(2S)-oxane-2-carbonyl]pyrrolidine-2-carboxylic acid]"
1 to 10,1 to 10,+++ (≥350),+ (<100),"COc1ccc(C(F)(F)F)cc1C(=O)CO[C@H]1[C@H](C(C)(C)C)[C@@H](C(=O)O)N(C(=O)[C@@H]2CCCCO2)[C@H]1c1ccccc1C [Example 264, (2S,3R,4S,5S)-3-tert-butyl-4-{2-[2-methoxy-5-(trifluoromethyl)phenyl]-2-oxoethoxy}-5-(2-methylphenyl)-1-[(2S)-oxane-2-carbonyl]pyrrolidine-2-carboxylic acid]"
< 1,< 1,+++ (≥350),++ (≥100 and <200),"COc1ncc(C2CCC2)cc1CO[C@H]1[C@H](C(C)(C)C)[C@@H](C(=O)O)N(C(=O)OC(C)C(F)(F)F)[C@H]1c1cccnc1OC(C)C (stereo partly drawn) [Example 265, (2S,3R,4S,5S)-3-tert-butyl-4-[(5-cyclobutyl-2-methoxypyridin-3-yl)methoxy]-5-{2-[(propan-2-yl)oxy]pyridin-3-yl}-1-{[(1,1,1-trifluoropropan-2-yl)oxy]carbonyl}pyrrolidine-2-carboxylic acid]"
1 to 10,< 1,+++ (≥350),++ (≥100 and <200),"COc1ncc(C2CCC2)cc1CO[C@H]1[C@H](C(C)(C)C)[C@@H](C(=O)O)N(C(=O)O[C@H](C)C(F)(F)F)[C@H]1c1cccnc1OC(C)C [Example 266, (2S,3R,4S,5S)-3-tert-butyl-4-[(5-cyclobutyl-2-methoxypyridin-3-yl)methoxy]-5-{2-[(propan-2-yl)oxy]pyridin-3-yl}-1-({[(2R)-1,1,1-trifluoropropan-2-yl]oxy}carbonyl)pyrrolidine-2-carboxylic acid]"
1 to 10,< 1,+++ (≥350),++ (≥100 and <200),"COc1ncc(C2CCC2)cc1CO[C@H]1[C@H](C(C)(C)C)[C@@H](C(=O)O)N(C(=O)O[C@@H](C)C(F)(F)F)[C@H]1c1cccnc1OC(C)C [Example 267, (2S,3R,4S,5S)-3-tert-butyl-4-[(5-cyclobutyl-2-methoxypyridin-3-yl)methoxy]-5-{2-[(propan-2-yl)oxy]pyridin-3-yl}-1-({[(2S)-1,1,1-trifluoropropan-2-yl]oxy}carbonyl)pyrrolidine-2-carboxylic acid]"

# From patent US10399940B2, “Substituted pyrrolidines and methods of use” (AbbVie S.à.r.l., priority 2016, dated 2019)
